Consider 30 compounds from patent publication US10981862B2, “Physiological cooling compounds” (Symrise, Inc., priority 2015, dated 2021).

Data set [1] deals with sensory panel. The experiment in a line: Sensory panel evaluation of cooling ability, 20 ppm aqueous solutions. In kind it is in vivo. On the set-up: key to Peak cooling strength / Peak Strength: —: Not cooling under tested conditions. To be noted: for Longevity of cooling sensation / Time to reach peak cooling / Time period at peak cooling / Peak cooling strength / Peak Strength: 20 ppm aqueous solution; for Time period at peak cooling: cooling plateau; for Peak cooling strength: maximum cooling strength rated on a 1-10 scale; for Peak Strength: Table 4, repeats Table 2, 1-10 scale; for Cooling properties, in words: sensory panel results. The method, then:
The new carboxamides A1-A15 and B1-B15 were evaluated for their cooling ability by a sensory panel. The evaluation included tasting the 20 ppm aqueous solutions of new carboxamides and rating their maximum cooling strength on a 1-10 scale. In addition, the time at which maximum cooling strength was reached, how long the maximum strength was observed (so called cooling plateau), and the longevity of cooling sensation were recorded. The FIGURE represents a typical cooling profile, using compound A1 as an example. The obtained results (table 2), were compared with two most commonly used commercial cooling compounds WS-3 and WS-23 which belong to the same class of N-alkyl carboxamides. While various methods exist for evaluation of cooling compounds, we have chosen the parameters that allow to assess the practical aspects of new compounds that reflect their potential value as commercial sensory ingredients.

Data set [2] can be described thus: Cooling strength and longevity in alcohol-free mouthwash. The format is in vivo. To be noted: compared with WS-5. The method, then:
Select physiological coolants according to various embodiments were tested in an alcohol-free mouthwash and their impact was evaluated against the control (a known coolant WS-5).

For data set [3] the following is noted: amount of compound needed to produce a cooling sensation; cited from earlier work.

Compound `CCC(C)(C)NC(=O)C1CC(C)CCC1C(C)C` (centres unmarked) [Compound A1] gave a melting point of 133.1 °C. For the same compound, in data set [1], the “Longevity of cooling sensation” value amounted to 25 min, the “Time to reach peak cooling” value is recorded as 6 min, the “Time period at peak cooling” value was 2 min and the Peak cooling strength was 8. In data set [1], the “Peak Strength” value was determined as 8 and the “Cooling properties, in words” value is “one of the most potent coolants found among the N-alkyl p-menthane carboxamides”. In addition, the “Cooling effect in mouthwash, in words” value in data set [2] was “superior long-lasting cooling effect”.

`CC1CCC(C(C)C)C(C(=O)NCC(C)(C)C)C1` (centres unmarked) [Compound A3] registered a melting point of 152.4 °C. In data set [1], the “Longevity of cooling sensation” value worked out at 22 min, the “Time to reach peak cooling” value worked out at 4 min, the “Time period at peak cooling” value is on record as 3 min and the Peak cooling strength is on record as 7. Also, the “Peak Strength” value in data set [1] turned out to be 7.

The compound `CC1CCC(C(C)C)C(C(=O)NC(C)C(C)C)C1` (centres unmarked) [Compound A4] returned a melting point of 160.2 °C. Also, in data set [1], the “Longevity of cooling sensation” value worked out at 20 min, the “Time to reach peak cooling” value is listed as 3 min, the “Time period at peak cooling” value came to 2 min and the Peak cooling strength came to 5. Besides, the “Peak Strength” value in data set [1] amounted to 5.

As for `CCC(C)CNC(=O)C1CC(C)CCC1C(C)C` (centres unmarked) [Compound A6], the melting point amounted to 92.8 °C. Further, in data set [1], the “Longevity of cooling sensation” value was determined as 20 min, the “Time to reach peak cooling” value is given as 3 min, the “Time period at peak cooling” value amounted to 2 min and the Peak cooling strength was determined as 6. Also, the “Peak Strength” value in data set [1] stood at 6.

Regarding `CCC(CC)NC(=O)C1CC(C)CCC1C(C)C` (centres unmarked) [Compound A7], the melting point amounted to 192.6 °C. For the same compound, in data set [1], the “Longevity of cooling sensation” value amounted to 16 min, the “Time to reach peak cooling” value came to 3 min, the “Time period at peak cooling” value came out at 2 min and the Peak cooling strength was 6. In data set [1], the “Peak Strength” value stood at 6.

Turning to `CCCCCCNC(=O)C1CC(C)CCC1C(C)C` (centres unmarked) [Compound A8], the melting point was 58.8 °C. Besides, in data set [1], the “Longevity of cooling sensation” value is 29 min, the “Time to reach peak cooling” value was found to be 5 min, the “Time period at peak cooling” value is recorded as 2 min and the Peak cooling strength is 6. Besides, in data set [1], the “Peak Strength” value is 6; the “Cooling properties, in words” value was “peak cooling strength exceeds both WS-3 and A4”. Moreover, the “Cooling effect in mouthwash, in words” value in data set [2] is “superior long-lasting cooling effect”.

The compound `CC(C)CC(C)NC(=O)C1CC(C)CCC1C(C)C` (centres unmarked) [Compound A9] yielded a melting point of 152.6 °C. Also, in data set [1], the “Longevity of cooling sensation” value is 15 min, the “Time to reach peak cooling” value amounted to 5 min, the “Time period at peak cooling” value was 4 min and the Peak cooling strength is 3. Also, the “Peak Strength” value in data set [1] worked out at 3.

As to `CCCCCCCNC(=O)C1CC(C)CCC1C(C)C` (centres unmarked) [Compound A10], in data set [1], the “Longevity of cooling sensation” value is 19 min, the “Time to reach peak cooling” value was 4 min, the “Time period at peak cooling” value turned out to be 1 min and the Peak cooling strength was 5. In data set [1], the “Peak Strength” value is 5.

Consider `CCCCCC(C)NC(=O)C1CC(C)CCC1C(C)C` (centres unmarked) [Compound A11], for which, in data set [1], the “Longevity of cooling sensation” value came to 15 min, the “Time to reach peak cooling” value stood at 8 min, the “Time period at peak cooling” value was 2 min and the Peak cooling strength turned out to be 2. Further, the “Peak Strength” value in data set [1] came out at 2.

Turning to `CCCCCCCCNC(=O)C1CC(C)CCC1C(C)C` (centres unmarked) [Compound A12], in data set [1], the “Longevity of cooling sensation” value was 10 min, the “Time to reach peak cooling” value was 6 min, the “Time period at peak cooling” value was found to be 4 min and the Peak cooling strength was determined as 2. Besides, in data set [1], the “Peak Strength” value is recorded as 2.

For `CC(C)CCCC(C)NC(=O)C1CC(C)CCC1C(C)C` (centres unmarked) [Compound A14], the melting point was determined as 146.7 °C. Moreover, in data set [1], the Peak cooling strength result is recorded as “— ^a” and the “Peak Strength” value is given as “—^a”.

`CC1CCC(C(C)C)C(C(=O)NC(C)(C)CC(C)(C)C)C1` (centres unmarked) [Compound A15]: the melting point was 107 °C. For the same compound, in data set [1], the “Longevity of cooling sensation” value amounted to 14 min, the “Time to reach peak cooling” value is given as 4 min, the “Time period at peak cooling” value was found to be 6 min and the Peak cooling strength worked out at 2. Also, in data set [1], the “Peak Strength” value is 2; the “Cooling properties, in words” value is “only as strong as A12 and much weaker than other coolants”.

With `CCC(C)(C)NC(=O)C(C)(C(C)C)C(C)C` [Compound B1], in data set [1], the Peak cooling strength entry is on record as “— ^a” and the “Cooling properties, in words” value was “does not possess any cooling properties”.

`CC(C)CCNC(=O)C(C)(C(C)C)C(C)C` [Compound B2] gave a melting point of 72.2 °C. In data set [1], the “Longevity of cooling sensation” value was 12 min, the “Time to reach peak cooling” value worked out at 3 min, the “Time period at peak cooling” value is given as 2 min and the Peak cooling strength is listed as 2.

`CC(C)C(C)(C(=O)NCC(C)(C)C)C(C)C` [Compound B3]: the melting point is 65.9 °C. Also, in data set [1], the “Longevity of cooling sensation” value is given as 15 min, the “Time to reach peak cooling” value is 3 min, the “Time period at peak cooling” value amounted to 3 min and the Peak cooling strength is recorded as 3.

In turn, `CC(C)C(C)NC(=O)C(C)(C(C)C)C(C)C` (centres unmarked) [Compound B4] returned a melting point of 88.4 °C. Moreover, in data set [1], the “Longevity of cooling sensation” value was 14 min, the “Time to reach peak cooling” value is reported as 3 min, the “Time period at peak cooling” value amounted to 2 min and the Peak cooling strength amounted to 4.

For the compound `CCCC(C)NC(=O)C(C)(C(C)C)C(C)C` (centres unmarked) [Compound B5], the melting point was 98 °C. Further, in data set [1], the “Longevity of cooling sensation” value was 15 min, the “Time to reach peak cooling” value was found to be 2 min, the “Time period at peak cooling” value is on record as 3 min and the Peak cooling strength stood at 6.

With `CCC(C)CNC(=O)C(C)(C(C)C)C(C)C` (centres unmarked) [Compound B6], the melting point was 67.1 °C. Besides, in data set [1], the “Longevity of cooling sensation” value is 17 min, the “Time to reach peak cooling” value amounted to 3 min, the “Time period at peak cooling” value stood at 2 min and the Peak cooling strength is given as 4.

The compound `CCC(CC)NC(=O)C(C)(C(C)C)C(C)C` [Compound B7] registered a melting point of 105 °C. In addition, in data set [1], the “Longevity of cooling sensation” value is 14 min, the “Time to reach peak cooling” value was 4 min, the “Time period at peak cooling” value was determined as 2 min and the Peak cooling strength is reported as 4.

As for `CCCCCCNC(=O)C(C)(C(C)C)C(C)C` [Compound B8], in data set [1], the “Longevity of cooling sensation” value is recorded as 17 min, the “Time to reach peak cooling” value stood at 4 min, the “Time period at peak cooling” value was 1 min and the Peak cooling strength was 3.

Take `CC(C)CC(C)NC(=O)C(C)(C(C)C)C(C)C` (centres unmarked) [Compound B9]: the melting point was determined as 83.7 °C. For the same compound, in data set [1], the “Longevity of cooling sensation” value worked out at 18 min, the “Time to reach peak cooling” value is 4 min, the “Time period at peak cooling” value was 2 min and the Peak cooling strength worked out at 5.

As to `CCCCCCCNC(=O)C(C)(C(C)C)C(C)C` [Compound B10], the Peak cooling strength result in data set [1] was “— ^a”.

As for `CCCCCC(C)NC(=O)C(C)(C(C)C)C(C)C` (centres unmarked) [Compound B11], the melting point was 46.9 °C. Further, the Peak cooling strength result in data set [1] is “— ^a”.

Consider `CCCCCCCCNC(=O)C(C)(C(C)C)C(C)C` [Compound B12], for which the Peak cooling strength result in data set [1] is “— ^a”.

`CCCCC(CC)CNC(=O)C(C)(C(C)C)C(C)C` (centres unmarked) [Compound B13] came in with a melting point of 82.5 °C. The Peak cooling strength entry in data set [1] is “— ^a”.

As for `CC(C)CCCC(C)NC(=O)C(C)(C(C)C)C(C)C` (centres unmarked) [Compound B14], the melting point was 59.4 °C. Further, the Peak cooling strength result in data set [1] is “— ^a”.

As to `CC(C)C(C)(C(=O)NC(C)(C)CC(C)(C)C)C(C)C` [Compound B15], the Peak cooling strength entry in data set [1] is “— ^a”.

Consider `CNC(=O)C1CC(C)CCC1C(C)C` (centres unmarked) [Methyl], for which the “Threshold” value in data set [3] is 1.1 µg.

On to `CCNC(=O)C1CC(C)CCC1C(C)C` (centres unmarked) [WS-3, reference compound], for which the “Threshold” value in data set [3] is 0.3 µg. For the same compound, in data set [1], the “Longevity of cooling sensation” value was found to be 11 min, the “Time to reach peak cooling” value is listed as 2 min, the “Time period at peak cooling” value stood at 2 min and the Peak cooling strength is listed as 5.

For the compound `CNC(=O)C(C)(C(C)C)C(C)C` [WS-23, reference compound], in data set [1], the “Longevity of cooling sensation” value was determined as 7 min, the “Time to reach peak cooling” value is given as 2 min, the “Time period at peak cooling” value was determined as 2 min and the Peak cooling strength stood at 4.

For orientation: melting point means the temperature of the solid-liquid transition.
